# Tests used:
# [1] = system: Escherichia coli; test: microbe, parasite or virus in culture
# [2] = system: Escherichia coli; test: microbe, parasite or virus in culture; remark: listed apart in the source
# [3] = system: Escherichia coli; test: microbe, parasite or virus in culture; remark: listed apart in the source
# [4] = system: Escherichia coli; test: microbe, parasite or virus in culture; remark: listed apart in the source
# [5] = system: Escherichia coli; test: microbe, parasite or virus in culture; remark: listed apart in the source
# [6] = system: Escherichia coli; test: microbe, parasite or virus in culture; remark: listed apart in the source
# [7] = system: Escherichia coli; test: microbe, parasite or virus in culture; remark: listed apart in the source
# [8] = system: Escherichia coli; test: microbe, parasite or virus in culture; remark: listed apart in the source
# [9] = system: Escherichia coli; test: microbe, parasite or virus in culture; remark: listed apart in the source
# [10] = system: Escherichia coli; test: microbe, parasite or virus in culture; remark: listed apart in the source
# [11] = system: Escherichia coli; test: microbe, parasite or virus in culture; remark: listed apart in the source
# [12] = system: Escherichia coli; test: microbe, parasite or virus in culture; remark: listed apart in the source
# [13] = system: Escherichia coli; test: microbe, parasite or virus in culture; remark: listed apart in the source
# [14] = system: Escherichia coli; test: microbe, parasite or virus in culture; remark: listed apart in the source
# [15] = system: Escherichia coli; test: microbe, parasite or virus in culture; remark: listed apart in the source
# [16] = system: Escherichia coli; test: microbe, parasite or virus in culture; remark: listed apart in the source
# [17] = system: Escherichia coli; test: microbe, parasite or virus in culture; remark: listed apart in the source
# [18] = system: Escherichia coli; test: microbe, parasite or virus in culture; remark: listed apart in the source
# [19] = system: Escherichia coli; test: microbe, parasite or virus in culture; remark: listed apart in the source
# [20] = system: Escherichia coli; test: microbe, parasite or virus in culture; remark: listed apart in the source
# [21] = system: Escherichia coli; test: microbe, parasite or virus in culture; remark: listed apart in the source
# [22] = system: Pseudomonas aeruginosa; test: Antimicrobial activity against Pseudomonas aeruginosa expressing delta-mexB/mexXY/delta-ampDh2/ delta-ampD by CLSI broth microdilution method; assay type: functional
# [23] = system: Escherichia coli; test: microbe, parasite or virus in culture; remark: listed apart in the source
# [24] = system: Pseudomonas aeruginosa; test: Antimicrobial activity against Pseudomonas aeruginosa expressing nalB/delta-mexXY/delta-mexCDoprJ/delta-ampC by CLSI broth microdilution method; assay type: functional
# [25] = system: Pseudomonas aeruginosa; test: Antimicrobial activity against Pseudomonas aeruginosa expressing delta-mexB/delta-mexXY/delta-mexCD and delta-ampC mutant by CLSI broth microdilution method; assay type: functional
# [26] = system: Escherichia coli; test: microbe, parasite or virus in culture; remark: listed apart in the source
# [27] = system: Pseudomonas aeruginosa; test: Antimicrobial activity against Pseudomonas aeruginosa ATCC 27853 by CLSI broth microdilution method; assay type: functional
# [28] = system: Escherichia coli; test: Antimicrobial activity against Escherichia coli expressing beta-lactamase KPC-2 by CLSI broth microdilution method; assay type: functional
# [29] = system: Escherichia coli; test: microbe, parasite or virus in culture; remark: listed apart in the source
# [30] = system: Escherichia coli; test: microbe, parasite or virus in culture; remark: listed apart in the source
# [31] = system: Escherichia coli; test: microbe, parasite or virus in culture; remark: listed apart in the source
# [32] = system: Escherichia coli; test: microbe, parasite or virus in culture; remark: listed apart in the source
# [33] = system: Escherichia coli; test: microbe, parasite or virus in culture; remark: listed apart in the source
# [34] = system: Escherichia coli; test: microbe, parasite or virus in culture; remark: listed apart in the source
# [35] = system: Escherichia coli; test: Antimicrobial activity against Escherichia coli expressing beta-lactamase VEB-1 by CLSI broth microdilution method; assay type: functional
# [36] = system: Escherichia coli; test: Antimicrobial activity against Escherichia coli expressing beta-lactamase NDM-1 by CLSI broth microdilution method; assay type: functional
# [37] = system: Escherichia coli; test: microbe, parasite or virus in culture; remark: listed apart in the source
# [38] = system: Escherichia coli; test: microbe, parasite or virus in culture; remark: listed apart in the source
# [39] = system: Escherichia coli; test: microbe, parasite or virus in culture; remark: listed apart in the source
# [40] = system: Escherichia coli; test: Antimicrobial activity against Escherichia coli expressing beta-lactamase TEM-1 by CLSI broth microdilution method; assay type: functional
# [41] = system: Escherichia coli; test: microbe, parasite or virus in culture; remark: listed apart in the source
# [42] = system: Escherichia coli; test: microbe, parasite or virus in culture; remark: listed apart in the source
# [43] = system: Escherichia coli; test: microbe, parasite or virus in culture; remark: listed apart in the source
# [44] = system: Escherichia coli; test: microbe, parasite or virus in culture; remark: listed apart in the source
# [45] = system: Escherichia coli; test: microbe, parasite or virus in culture; remark: listed apart in the source
# [46] = system: Escherichia coli; test: microbe, parasite or virus in culture; remark: listed apart in the source
# [47] = system: Escherichia coli; test: microbe, parasite or virus in culture; remark: listed apart in the source
# [48] = system: Escherichia coli; test: Antimicrobial activity against Escherichia coli expressing beta-lactamase NDM-5 by CLSI broth microdilution method; assay type: functional
# [49] = system: Escherichia coli; test: microbe, parasite or virus in culture; remark: listed apart in the source
structure (smiles),measurement,setting,value
CO/N=C(\C(=O)N[C@@H]1C(=O)N2C(C(=O)[O-])=C(C[N+]3(C)CCCC3)CS[C@H]12)c1csc(N)n1,MIC,[1],1 µg/mL
same,MIC,[2],1 µg/mL
same,MIC,[3],4 µg/mL
same,MIC,[4],0.125 µg/mL
same,MIC,[5],0.125 µg/mL
same,MIC,[6],0.25 µg/mL
same,MIC,[7],1 µg/mL
same,MIC,[8],16 µg/mL
same,MIC,[9],0.125 µg/mL
same,MIC,[10],0.125 µg/mL
same,MIC,[11],1 µg/mL
same,MIC,[12],0.25 µg/mL
same,MIC,[13],0.125 µg/mL
same,MIC,[14],4 µg/mL
same,MIC,[15],4 µg/mL
same,MIC,[16],1 µg/mL
same,MIC,[17],0.125 µg/mL
same,MIC,[18],16 µg/mL
same,MIC,[19],≤ 0.03 µg/mL
same,MIC,[20],0.25 µg/mL
same,MIC,[21],0.25 µg/mL
CC(C)(O/N=C(\C(=O)N[C@@H]1C(=O)N(S(=O)(=O)O)[C@@H]1Cn1cncn1)c1nsc(N)n1)C(=O)O,MIC,[1],8 µg/mL
same,MIC,[22],> 64 µg/mL
same,MIC,[23],8 µg/mL
same,MIC,[24],> 64 µg/mL
same,MIC,[25],1 µg/mL
same,MIC,[10],16 µg/mL
same,MIC,[26],32 µg/mL
same,MIC,[27],32 µg/mL
same,MIC,[18],1 µg/mL
same,MIC,[19],1 µg/mL
same,MIC,[28],2 µg/mL
CC1(C)[C@H](NC(=O)/C(=N\OCc2cc(=O)c(O)cn2O)c2csc(N)n2)C(=O)N1OS(=O)(=O)O (stereo in doubt),MIC,[29],0.25 µg/mL
same,MIC,[1],> 64 µg/mL
same,MIC,[30],0.25 µg/mL
same,MIC,[31],0.25 µg/mL
same,MIC,[32],8 µg/mL
same,MIC,[2],8 µg/mL
same,MIC,[3],32 µg/mL
same,MIC,[4],0.5 µg/mL
same,MIC,[5],0.125 µg/mL
same,MIC,[6],0.06 µg/mL
same,MIC,[7],8 µg/mL
same,MIC,[23],> 32 µg/mL
same,MIC,[8],≤ 0.06 µg/mL
same,MIC,[33],> 64 µg/mL
same,MIC,[34],2 µg/mL
same,MIC,[9],0.125 µg/mL
same,MIC,[35],16 µg/mL
same,MIC,[10],0.25 µg/mL
same,MIC,[36],0.25 µg/mL
same,MIC,[37],0.5 µg/mL
same,MIC,[38],0.25 µg/mL
same,MIC,[39],≤ 0.06 µg/mL
same,MIC,[40],0.5 µg/mL
same,MIC,[11],2 µg/mL
same,MIC,[12],8 µg/mL
same,MIC,[13],0.125 µg/mL
same,MIC,[14],≤ 0.06 µg/mL
same,MIC,[41],0.25 µg/mL
same,MIC,[42],2 µg/mL
same,MIC,[43],0.06 µg/mL
same,MIC,[44],2 µg/mL
same,MIC,[15],16 µg/mL
same,MIC,[26],0.5 µg/mL
same,MIC,[16],0.25 µg/mL
same,MIC,[45],≤ 0.03 µg/mL
same,MIC,[17],0.5 µg/mL
same,MIC,[46],2 µg/mL
same,MIC,[47],0.5 µg/mL
same,MIC,[48],0.125 µg/mL
same,MIC,[18],1 µg/mL
same,MIC,[49],16 µg/mL
same,MIC,[19],0.25 µg/mL
same,MIC,[20],16 µg/mL
same,MIC,[28],0.5 µg/mL
same,MIC,[21],16 µg/mL
CC(C)(O/N=C(\C(=O)N[C@@H]1C(=O)N2C(C(=O)[O-])=C(C[n+]3ccccc3)CS[C@H]12)c1csc(N)n1)C(=O)O [CEFTAZIDIME],MIC,[29],2 µg/mL
same,MIC,[1],> 64 µg/mL
same,MIC,[30],0.25 µg/mL
same,MIC,[31],0.25 µg/mL
same,MIC,[32],> 64 µg/mL
same,MIC,[2],64 µg/mL
same,MIC,[3],> 64 µg/mL
same,MIC,[4],8 µg/mL
same,MIC,[5],0.25 µg/mL
same,MIC,[6],0.125 µg/mL
same,MIC,[7],> 64 µg/mL
same,MIC,[23],> 64 µg/mL
same,MIC,[8],> 64 µg/mL
same,MIC,[33],> 64 µg/mL
same,MIC,[34],8 µg/mL
same,MIC,[9],0.125 µg/mL
same,MIC,[35],> 64 µg/mL
same,MIC,[10],64 µg/mL
same,MIC,[36],> 64 µg/mL
same,MIC,[37],> 64 µg/mL
same,MIC,[38],16 µg/mL
same,MIC,[39],4 µg/mL
same,MIC,[40],0.25 µg/mL
same,MIC,[11],1 µg/mL
same,MIC,[12],0.5 µg/mL
same,MIC,[13],0.25 µg/mL
same,MIC,[14],> 64 µg/mL
same,MIC,[41],> 64 µg/mL
same,MIC,[42],4 µg/mL
same,MIC,[43],0.125 µg/mL
same,MIC,[44],8 µg/mL
same,MIC,[15],> 64 µg/mL
same,MIC,[26],8 µg/mL
same,MIC,[16],64 µg/mL
same,MIC,[45],0.125 µg/mL
same,MIC,[17],0.5 µg/mL
same,MIC,[46],> 64 µg/mL
same,MIC,[47],32 µg/mL
same,MIC,[48],> 64 µg/mL
same,MIC,[18],8 µg/mL
same,MIC,[49],> 64 µg/mL
same,MIC,[19],0.125 µg/mL
same,MIC,[20],64 µg/mL
same,MIC,[28],8 µg/mL
same,MIC,[21],> 64 µg/mL
CCN1CCN(C(=O)N[C@@H](C(=O)N[C@@H]2C(=O)N3[C@@H]2SC(C)(C)[C@@H]3C(=O)O)c2ccccc2)C(=O)C1=O [PIPERACILLIN],MIC,[29],> 64 µg/mL
same,MIC,[1],> 64 µg/mL
same,MIC,[30],64 µg/mL
same,MIC,[31],64 µg/mL
same,MIC,[32],> 64 µg/mL
same,MIC,[2],64 µg/mL
same,MIC,[3],> 64 µg/mL
same,MIC,[4],32 µg/mL
same,MIC,[5],> 64 µg/mL
same,MIC,[6],> 64 µg/mL
same,MIC,[7],8 µg/mL
same,MIC,[23],> 64 µg/mL
same,MIC,[8],> 64 µg/mL
same,MIC,[33],> 64 µg/mL
same,MIC,[34],> 64 µg/mL
same,MIC,[9],> 64 µg/mL
same,MIC,[35],32 µg/mL
same,MIC,[10],32 µg/mL
same,MIC,[36],> 64 µg/mL
same,MIC,[37],8 µg/mL
same,MIC,[38],64 µg/mL
same,MIC,[39],> 64 µg/mL
same,MIC,[40],> 64 µg/mL
same,MIC,[11],> 64 µg/mL
same,MIC,[12],64 µg/mL
same,MIC,[13],> 64 µg/mL
same,MIC,[14],64 µg/mL
same,MIC,[41],16 µg/mL
same,MIC,[42],64 µg/mL
same,MIC,[43],8 µg/mL
same,MIC,[44],8 µg/mL
same,MIC,[15],32 µg/mL
same,MIC,[26],> 64 µg/mL
same,MIC,[16],> 64 µg/mL
same,MIC,[45],> 64 µg/mL
same,MIC,[17],> 64 µg/mL
same,MIC,[46],32 µg/mL
same,MIC,[47],> 64 µg/mL
same,MIC,[48],> 64 µg/mL
same,MIC,[18],> 64 µg/mL
same,MIC,[49],> 64 µg/mL
same,MIC,[19],4 µg/mL
same,MIC,[20],64 µg/mL
same,MIC,[28],> 64 µg/mL
same,MIC,[21],16 µg/mL
